tested on: ST14A; assay: Modulation of RE1/NRSE expressed in ST14A cells assessed as increase in luciferase reporter activity at 50 nM after 72 hrs relative to control; type: cell-based

Point of comparison: `Cc1ccn2c(-c3csc(Nc4ccc(N(C)C)cc4)n3)c(C)nc2c1`, Activity 2.55. Against it:
- Cc1nc2ccccn2c1-c1csc(Nc2ccc(N)cc2)n1 — lower, 1.28
- Cc1nc2ccccn2c1-c1csc(Nc2ccc(O)cc2)n1 — lower, 1.02
- Cc1nc2ccccn2c1-c1csc(Nc2cccc(O)c2)n1 — lower, 1.04
- COc1ccc(Nc2nc(-c3c(C)nc4ccccn34)cs2)cc1 — lower, 2
- Cc1nc2ccccn2c1-c1csc(NC(=O)c2ccncc2)n1 — lower, 1
- Cc1nc2ccccn2c1-c1csc(N)n1 — lower, 0.87
- CCN(CC)c1ccc(Nc2nc(-c3c(C)nc4ncccn34)cs2)cc1 — lower, 1.16
- COc1ccc(Cl)c(Nc2nc(-c3c(C)nc4sccn34)cs2)c1 — lower, 0.91
- Cc1ccn2c(-c3csc(Nc4ccc(C(=O)O)cc4)n3)c(C)nc2c1 — lower, 1.12
- CCOc1ccccc1Nc1nc(-c2c(C)nc3cc(C)ccn23)cs1 — lower, 0.94
- CCN(CC)c1ccc(Nc2nc(-c3c(C)nc4cc(C)ccn34)cs2)cc1 — lower, 1.06
- Cc1nc2ccccn2c1-c1csc(NCc2ccco2)n1 — lower, 1.01
- CCN(CC)c1ccc(Nc2nc(-c3c(C)nc4sccn34)cs2)cc1 — lower, 1.04
- COc1ccc(Nc2nc(-c3c(C)nc4cc(C)ccn34)cs2)cc1 — lower, 2.19
- Cc1nc2ccccn2c1-c1csc(NC(=O)c2ccccc2)n1 — lower, 1.09
- Cc1nc2ccccn2c1-c1csc(Nc2ccc(Br)cc2)n1 — lower, 1.9
- Cc1ccn2c(-c3csc(Nc4ccc(N)cc4)n3)c(C)nc2c1 — lower, 1.14
- Cc1ccn2c(-c3csc(Nc4ccc(O)cc4)n3)c(C)nc2c1 — lower, 1.08
- CN(C)c1ccc(Nc2nc(-c3ccccc3)cs2)cc1 — lower, 1.3
- Cc1nc2ccccn2c1-c1csc(Nc2ccccc2)n1 — lower, 1.01
- Cc1nc2sccn2c1-c1csc(Nc2ccc(N)cc2)n1 — lower, 1.14
- CN(C)c1ccc(Nc2nc(-c3ccncc3)cs2)cc1 — lower, 1.13
- COc1ccccc1Nc1nc(-c2c(C)nc3ncccn23)cs1 — lower, 0.97
- Cc1ccn2c(-c3csc(Nc4cccc(C(=O)O)c4)n3)c(C)nc2c1 — lower, 1.14
- Cc1nc2ccccn2c1-c1csc(NC(=O)c2ccco2)n1 — lower, 0.94
- CCOc1ccc(Nc2nc(-c3c(C)nc4cc(C)ccn34)cs2)cc1 — lower, 1.88
- Cc1ccn2c(-c3csc(NCc4ccccc4)n3)c(C)nc2c1 — lower, 1.3
- Cc1ccnc(Nc2nc(-c3c(C)nc4ccccn34)cs2)c1 — lower, 0.98
- COc1cc(Br)c(Nc2nc(-c3c(C)nc4cc(C)ccn34)cs2)c(Br)c1 — lower, 1.07
- Cc1nc2sccn2c1-c1csc(Nc2ccc(N(C)C)cc2)n1 — lower, 1.8
- Cc1nc2ncccn2c1-c1csc(Nc2ccc(N(C)C)cc2)n1 — higher, 3.34
- CCN(CC)c1ccc(Nc2nc(-c3c(C)nc4ccccn34)cs2)cc1 — lower, 1.09
- COc1ccc(Nc2nc(-c3c(C)nc4ncccn34)cs2)cc1 — lower, 2.29
- Cc1nc(N)sc1-c1csc(Nc2ccc(N(C)C)cc2)n1 — lower, 1.23
- Cc1nc2sccn2c1-c1csc(Nc2ccc(O)cc2)n1 — lower, 0.95
- Cc1nc2ccccn2c1-c1csc(NC(=O)c2cccnc2)n1 — lower, 0.98
- Cc1nc2ncccn2c1-c1csc(Nc2ccc(O)cc2)n1 — lower, 0.89
- COc1ccc(Cl)c(Nc2nc(-c3c(C)nc4ccccn34)cs2)c1 — lower, 1.09
- Cc1nc2ccccn2c1-c1csc(NC(=O)c2ccc(Br)cc2)n1 — lower, 0.94
- Cc1nc2ccccn2c1-c1csc(NCc2ccccc2)n1 — lower, 0.97
- C=CCNc1nc(-c2c(C)nc3ccccn23)cs1 — lower, 0.91
- COc1ccc(Cl)c(Nc2nc(-c3c(C)nc4ncccn34)cs2)c1 — lower, 0.74
- Cc1ccn2c(-c3csc(NCc4ccco4)n3)c(C)nc2c1 — lower, 0.99
- COc1cc(Br)c(Nc2nc(-c3c(C)nc4ncccn34)cs2)c(Br)c1 — lower, 1.03
